This is an account of results in paper PMC11904701, “Isolation and Characterization of Secondary Metabolites from Endemic and Edible Polygonum sivasicum with In Vitro Antioxidant and Cytotoxic Activities” (ACS Omega, 2025).

Values after ≈ are worked out from the molar mass of the structure shown.

The test system of one data set is HepG2 cells. The arrangement: method as in doi:10.14233/ajchem.2013.15043. The settings on record: cited from earlier work.
For data set [1], the system named is MCF-7 (human breast cancer cells). The data set is described as follows: MTT cell viability assay, MCF-7. Type of data set: cell-based. The settings on record: 24 h; for IC50: Homo sapiens, MCF7, MTT, mean ± SD (n = 3); for selectivity index MCF-7: versus CCD-1079Sk. As to the method:
(§1) The A549 (human lung carcinoma epithelial cells, ATCC, CCL-185), MCF-7 (human breast cancer cells, ATCC, HTB-22), and CCD-1079Sk (human normal skin fibroblast epithelial cells, ATCC, CRL-2097) cell lines were initially seeded into culture flasks and grown in DMEM supplemented with 10% FBS (Sigma-Aldrich, St Louis, MO), 1% penicillin/streptomycin (Thermo Fisher Scientific, Carlsbad, CA). The cell lines were maintained in a humidified atmosphere of 5% CO2 at a temperature of 37 °C. The culture medium was changed every two days until the cells reached 80% confluence.
(§2) 3-(4,5-dimethyl-2-thiazolyl)-2,5-diphenyl-2H-tetrazolium bromide (MTT) was used to assess the cytotoxicity of hyperoside, annphenone, daucosterol, and P. sivasicum methanol extract. Cells were grown in 96-well plates at a density of 5 × 10^3 cells per well. In total, 70 to 80% of confluent cells (after 24 h) were treated with different concentrations of compounds (prepared in a medium containing 1% DMSO) in the growth medium for 24 h. At the end of the incubation periods, MTT solution was added to the wells to give a final concentration of 0.5 mg/mL. The cells were then incubated at 37 °C for a further 3.5 h. To solubilize the formazan crystals, 100 μL of DMSO was added to each well. The optical density was read at 570 nm by using an ELISA microplate reader and directly correlated with the number of viable cells. For each concentration, the data for which the measurement was repeated at least three times were compared. The relative % cell viability and the IC50 value were determined by plotting the graph as a function of concentration. Untreated cells were considered as control, and medium without cells was considered as background control. To determine the cytotoxic effect of compounds on cell viability, cells that were not treated with compounds were considered 100% viable, and cell viability was calculated according to the following formula: % Cell Viability = Sample/Control × 100.
(§3) All data on bioactivity tests were averages of triplicate analyses. Activity assays were carried out at six concentrations, and the results are given as the IC50 values. The data were analyzed using One-way ANOVA followed by Tukey’s post hoc test. p < 0.05, p < 0.001 and p < 0.0001 were considered statistically significant. Data were recorded as mean ± SEM (standard error of the mean). Significant differences between means were determined by the one-way ANOVA, and p values < 0.05 were regarded as significant. IBM SPSS statistical software (Version: 28.0.0.0 (190)) and GraphPad Prism 10.2 were used for statistical analysis.
In general terms: Tetrazolium assays rely on reduction of a dye to a coloured formazan, in cell work by metabolically active cells.

In another data set the test system is Hep-3B cell line. The arrangement: method as in PMID 28856938. The settings on record: data not included in the cited paper; cited from earlier work.
On the set-up of data set [2]: method as in PMID 28856938. The settings on record: annphenone isolated from a Euphorbia species; cited from earlier work.
Another data set relates to A549 cell line. Also noted: method as in PMID 28856938. The settings on record: data not included in the cited paper; cited from earlier work.
The test system of a further data set is U118 cell line. The arrangement: method as in PMID 28856938. The settings on record: data not included in the cited paper; cited from earlier work.
In data set [3] the test system is CCD-1079Sk (human normal skin fibroblast epithelial cells). Kind of data set: MTT cell viability assay, CCD-1079Sk. In kind it is cell-based. Conditions: 24 h, mean ± SD (n = 3). As for the experimental part: as §1, §2, §3
A further data set deals with MCF-7 cell line. Also noted: method as in PMID 28856938. Conditions: data not included in the cited paper; cited from earlier work.
For a further data set, the system named is V79–4 cells. Also noted: method as in PMID 18550394. The settings on record: cited from earlier work.
In data set [4] the test system is A549 (human lung carcinoma epithelial cells). The data set is described as follows: MTT cell viability assay, A549. Conditions: for IC50: Homo sapiens, A549, 24 h, read-out: IC50, 24 h, A549; for selectivity index A549: versus CCD-1079Sk, 24 h.
For another data set, the system named is U87 cell line. Also noted: method as in PMID 28856938. The settings on record: data not included in the cited paper; cited from earlier work.
The nature of data set [5]: CUPRAC (Cupric Reducing Antioxidant Capacity) method. Type of data set: biochemical. Conditions: A0.5 values, mean ± SEM of three parallel measurements. As to the method: (§4) All data on bioactivity tests were averages of triplicate analyses. Activity assays were carried out at six concentrations, and the results are given as the IC50 values. The data were analyzed using One-way ANOVA followed by Tukey’s post hoc test. p < 0.05, p < 0.001 and p < 0.0001 were considered statistically significant. Data were recorded as mean ± SEM (standard error of the mean). […] IBM SPSS statistical software (Version: 28.0.0.0 (190)) and GraphPad Prism 10.2 were used for statistical analysis.

Data set [6] can be described thus: ABTS cation radical assay. In kind it is biochemical. Conditions: mean ± SEM of three parallel measurements. As to the method: as §4
Data set [7] is described as follows: DPPH free radical scavenging assay. Type of data set: biochemical. Conditions: mean ± SEM of three parallel measurements. As to the method:
as §4
For orientation: DPPH is a stable violet radical that fades when it is reduced.

Data set [8] can be described thus: β-carotene linoleic acid bleaching assay. Type of data set: biochemical. Conditions: mean ± SEM of three parallel measurements. As to the method: as §4
The subject of the next data set is MCF-7. The arrangement: method as in PMID 30160115. Conditions: after 24 h; cited from earlier work.
In another data set the test system is breast cancer tumor. The arrangement: method as in PMID 30160115. Conditions: mice, dose-dependent; cited from earlier work.
A further data set deals with MDA-MB-231. The arrangement: method as in PMID 30160115. The settings on record: after 24 h; cited from earlier work.

As to `O=c1[nH]cc(F)c(=O)[nH]1` [5-fluorouracil, reference compound], the “antiproliferative IC50 on HepG2 cells” value in the data set with HepG2 cells was 0.33 µg/mL.
`COc1cc(O[C@@H]2O[C@H](CO)[C@@H](O)[C@H](O)[C@H]2O)cc(O)c1C(C)=O` [Annphenone, 2,4-dihydroxy-6-methoxy-acetophenone 4-O-β-D-glucopyranoside]: the “antiproliferative IC50 on HepG2 cells” value in the data set with HepG2 cells is 2.0 µg/mL. For the same compound, in data set [1], the IC50 worked out at 360 ± 20 µg/mL (≈ 1050 µM) and the “selectivity index MCF-7” value stood at 0.83. Further, in the data set on Hep-3B cell line, the “cytotoxicity against Hep-3B” value was “no cytotoxicity”. For the same compound, in [2], the “DPPH scavenging IC50” value is 23.23 ± 1.8 µg/mL. In addition, in the data set on A549 cell line, the “cytotoxicity against A549” value was “no cytotoxicity”. Also, the “cytotoxicity against U118” value in the data set with U118 cell line is recorded as “no cytotoxicity”. In data set [3], half-maximal inhibition (IC50) was put at 300 ± 50 µg/mL (≈ 871 µM). For the same compound, the “cytotoxicity against MCF-7” value in the data set on MCF-7 cell line is listed as “no cytotoxicity”. In the data set on V79–4 cells, the “cytoprotective effect against H2O2-induced apoptosis” value is reported as “confirmed”. Also, in [4], the IC50 worked out at 250 ± 10 µg/mL (≈ 726 µM) and the “selectivity index A549” value was 1.20. For the same compound, the “cytotoxicity against U87” value in the data set on U87 cell line was “no cytotoxicity”.
Take `COc1ccc(O)c(C(C)(C)C)c1` [BHA, Butylated hydroxy anisol]: in data set [5], the “CUPRAC IC50 (A0.5: concentration of 0.500 Absorbance value)” value (“CUPRAC IC50” below) amounted to 24.49 ± 0.19 µg/mL. Also, in [6], the “ABTS IC50” value was determined as 7.23 ± 0.01 µg/mL. The “DPPH IC50” value in data set [7] came to 28.59 ± 0.06 µg/mL. In [8], the “β-carotene IC50” value is 1.34 ± 0.04 µg/mL.
On to `Cc1cc(C(C)(C)C)c(O)c(C(C)(C)C)c1` [BHT, Butylated hydroxy toluene], for which the “CUPRAC IC50” value in data set [5] was 26.85 ± 1.50 µg/mL. For the same compound, in data set [6], the “ABTS IC50” value is 21.67 ± 0.87 µg/mL.
For the compound `CC[C@H](CC[C@@H](C)[C@H]1CC[C@H]2[C@@H]3CC=C4C[C@@H](O[C@@H]5O[C@H](CO)[C@@H](O)[C@H](O)[C@H]5O)CC[C@]4(C)[C@H]3CC[C@]12C)C(C)C` [Daucosterol, β-sitosterol-3-O-β-glucopyranoside], the IC50 in data set [1] was 580 ± 20 µg/mL (≈ 1010 µM); with MCF-7 it was 30.8 mM; in data set [3] it was 260 ± 30 µg/mL (≈ 451 µM); in data set [4], 180 ± 20 µg/mL (≈ 312 µM); in the data set on MDA-MB-231 it was 49.8 mM. For the same compound, the “selectivity index MCF-7” value in data set [1] is recorded as 0.44. Further, the tumor volume result with breast cancer tumor is recorded as “decrease”. The tumor weight result with breast cancer tumor was “decrease”. The “selectivity index A549” value in [4] was found to be 1.44.
As for `COc1cccc2c1C(=O)c1c(O)c3c(c(O)c1C2=O)C[C@@](O)(C(=O)CO)C[C@@H]3O[C@H]1C[C@H](N)[C@H](O)[C@H](C)O1` [Doxorubicin, reference compound], in data set [1], the IC50 stood at 40 ± 10 µg/mL (≈ 73.6 µM) and the “selectivity index MCF-7” value is 7.0. In data set [3], this compound came in with an IC50 of 280 ± 10 µg/mL (≈ 515 µM). Further, in data set [4], the IC50 was found to be 10 ± 10 µg/mL (≈ 18.4 µM) and the “selectivity index A549” value is reported as 28.0.
As for `O=c1c(O[C@@H]2O[C@H](CO)[C@H](O)[C@H](O)[C@H]2O)c(-c2ccc(O)c(O)c2)oc2cc(O)cc(O)c12` [Hyperoside, Quercetin-3-O-β-galactopyranoside], in data set [1], the IC50 was found to be 370 ± 20 µg/mL (≈ 797 µM) and the “selectivity index MCF-7” value is reported as 0.67. The IC50 in data set [3] was determined as 250 ± 40 µg/mL (≈ 538 µM). Besides, in [4], the IC50 came to 600 ± 70 µg/mL (≈ 1290 µM) and the “selectivity index A549” value worked out at 0.41.
`Cc1c(C)c2c(c(C)c1O)CC[C@@](C)(CCC[C@H](C)CCC[C@H](C)CCCC(C)C)O2` [α-Toc, Tocopherol]: the “CUPRAC IC50” value in [5] stood at 134.53 ± 0.19 µg/mL. For the same compound, the “ABTS IC50” value in data set [6] was 27.70 ± 0.28 µg/mL. For the same compound, in data set [7], the “DPPH IC50” value came to 36.35 ± 0.24 µg/mL.

The term IC50 denotes the concentration at which inhibition is half-maximal.
